What was measured:
Conditions in all cases: human; call rule not given here
[1] = tested on: Hepatotoxicity; experiment: FDA HLAED, liver enzyme composite activity
[2] = tested on: Hepatotoxicity; experiment: FDA HLAED, alkaline phosphatase increase
[3] = tested on: Hepatotoxicity; experiment: FDA HLAED, serum glutamic oxaloacetic transaminase (SGOT) increase
[4] = tested on: Hepatotoxicity; experiment: FDA HLAED, serum glutamic pyruvic transaminase (SGPT) increase
[5] = tested on: Hepatotoxicity; experiment: FDA HLAED, lactate dehydrogenase (LDH) increase
[6] = tested on: Hepatotoxicity; experiment: FDA HLAED, gamma-glutamyl transferase (GGT) increase
Throughout, for GGT Increase - Index Value: reference of the scale not given here.
Throughout, for LDH Increase - Index Value: reference of the scale not given here.

Row | SMILES | Composite Activity - Active [1] | Composite Activity - Marginal [1] | Composite Activity - Score [1] | Alkaline Phosphatase Increase - Activity Score [2] | Alkaline Phosphatase Increase - Index Value [2] | Alkaline Phosphatase Increase - Number of Reports [2] | SGOT Increase - Activity Score [3] | SGOT Increase - Index Value [3] | SGOT Increase - Number of Reports [3] | SGPT Increase - Activity Score [4] | SGPT Increase - Index Value [4] | SGPT Increase - Number of Reports [4] | LDH Increase - Activity Score [5] | LDH Increase - Index Value [5] | LDH Increase - Number of Reports [5] | GGT Increase - Activity Score [6] | GGT Increase - Index Value [6] | GGT Increase - Number of Reports [6] | further results
1 | C[C@@H]1O[C@@H]1P(=O)(O)O [FOSFOMYCIN] | 0 | 0 | Inactive | Inactive | 0 | < 4 | Inactive | 0 | < 4 | Inactive | 0 | < 4 | Inactive | 0 | < 4 | Inactive | 0 | < 4 | –
2 | CC(C)/N=c1\cc2n(-c3ccc(Cl)cc3)c3ccccc3nc-2cc1Nc1ccc(Cl)cc1 [CLOFAZIMINE] | 4 | 0 | Active | Active | 76.9 | < 4 | Active | 76.9 | < 4 | Active | 102.6 | >= 4 | Inactive | 25.6 | < 4 | Active | 51.3 | < 4 | –
3 | COCC1=C(C(=O)OC(C)OC(=O)OC(C)C)N2C(=O)[C@@H](NC(=O)/C(=N\OC)c3csc(N)n3)[C@H]2SC1 (some centres undefined) [CEFPODOXIME PROXETIL] | 0 | 0 | Inactive | Inactive | 1 | >= 4 | Inactive | 1 | >= 4 | Inactive | 0.8 | >= 4 | Inactive | 0.2 | < 4 | Inactive | 0.5 | < 4 | –
4 | CCCc1c2oc(C(=O)O)cc(=O)c2cc2c(=O)cc(C(=O)O)n(CC)c12 [NEDOCROMIL] | 0 | 0 | Inactive | Inactive | 0 | < 4 | Inactive | 0.5 | < 4 | Inactive | 0.3 | < 4 | Inactive | 0.3 | < 4 | Inactive | 0 | < 4 | –
5 | CCC(=O)Oc1ccc2c(c1)CC[C@@H]1[C@@H]2CC[C@]2(C)[C@@H](OC(=O)CC)CC[C@@H]12 [ESTRADIOL DIPROPIONATE] | 0 | 0 | Inactive | Inactive | 1.5 | >= 4 | Inactive | 2.8 | >= 4 | Inactive | 2.1 | >= 4 | Inactive | 1.2 | >= 4 | Inactive | 0.3 | < 4 | –
6 | CC(C)n1c(/C=C/C(O)CC(O)CC(=O)O)c(-c2ccc(F)cc2)c2ccccc21 (centres undefined) [FLUVASTATIN] | – | – | – | Inactive | 0.5 | >= 4 | Inactive | 1 | >= 4 | Inactive | 1 | >= 4 | Inactive | 0 | < 4 | Inactive | 0.7 | >= 4 | Composite Activity - Active ([1]; Liver): 0; Composite Activity - Marginal ([1]; Liver): 0; Composite Activity - Score ([1]; Liver): Inactive
7 | Cn1cc([S+](C)[O-])c(=O)c2ccc(F)cc21 (centres undefined) [FLOSEQUINAN] | 1 | 0 | Inactive | Inactive | 14.1 | < 4 | Inactive | 28.3 | < 4 | Inactive | 28.3 | < 4 | Active | 56.6 | >= 4 | Inactive | 0 | < 4 | –
8 | CC[C@H]1OC(=O)[C@H](C)[C@@H](O[C@H]2C[C@@](C)(OC)[C@@H](O)[C@H](C)O2)[C@H](C)[C@@H](O[C@@H]2O[C@H](C)C[C@H](N(C)C)[C@H]2O)[C@](C)(OC)C[C@@H](C)C(=O)[C@H](C)[C@@H](O)[C@]1(C)O [CLARITHROMYCIN] | 0 | 3 | Inactive | Marginally Active | 3.1 | >= 4 | Marginally Active | 3.8 | >= 4 | Marginally Active | 3.3 | >= 4 | Inactive | 1.4 | >= 4 | Inactive | 1.5 | >= 4 | –
